Measured values: patent US8846601B2, “Melanocortin receptor-specific peptides” (Palatin Technologies, Inc., priority 2009, dated 2014)
pKi: −log10 of the molar value. Bridge positions count the residues as written; N and C are the ends. Square brackets hold non-standard residues; d marks the D form. Peptide text beside a SMILES is read from it. * marks the point of attachment. Bn = c1ccc(C*)cc1

Molecular target: hMC4-R (Homo sapiens (Human), UniProt P32245)
Assay: Competitive inhibition binding assay using [I125]-NDP-α-MSH, hMC4-R membranes
Details: averaged; [I125]-NDP-α-MSH (values not marked *); read-out: MC4-R Ki
Protocol: A competitive inhibition binding assay is performed using membrane homogenates prepared from HEK-293 cells that express recombinant hMC4-R, hMC3-R, or hMC5-R, and from B-16 mouse melanoma cells (containing endogenous MC1-R). In some instances, HEK-293 cells that express recombinant hMC1-R were employed. In the examples that follow, all MC3-R, MC4-R and MC5-R values are for human recombinant receptors. […] Membrane homogenates were incubated with 0.2 nM (for hMC4-R) 0.4 nM (for MC3-R and MC5-R) or 0.1 nM (for mouse B16 MC1-R or hMC1-R) [I^125]-NDP-α-MSH (Perkin Elmer) and increasing concentrations of test peptides of the present invention in buffer containing 25 mM HEPES buffer (pH 7.5) with 100 mM NaCl, 2 mM CaCl2, 2 mM MgCl2, 0.3 mM 1,10-phenanthroline, and 0.2% bovine serum albumin. After incubation for 60 minutes at 37° C., the assay mixture was filtered and the membranes washed three times with ice-cold buffer. Filters were dried and counted in a gamma counter for bound radioactivity. […] Maximal specific binding (100%) was defined as the difference in radioactivity (cpm) bound to cell membranes in the absence and presence of 1 μM NDP-α-MSH. […] Each assay was conducted in triplicate and the actual mean values are described, with results less than 0% reported as 0%. Ki values for test peptides of the present invention were determined using Graph-Pad Prism® curve-fitting software.

Chain of hMC4-R (P32245 whole entry): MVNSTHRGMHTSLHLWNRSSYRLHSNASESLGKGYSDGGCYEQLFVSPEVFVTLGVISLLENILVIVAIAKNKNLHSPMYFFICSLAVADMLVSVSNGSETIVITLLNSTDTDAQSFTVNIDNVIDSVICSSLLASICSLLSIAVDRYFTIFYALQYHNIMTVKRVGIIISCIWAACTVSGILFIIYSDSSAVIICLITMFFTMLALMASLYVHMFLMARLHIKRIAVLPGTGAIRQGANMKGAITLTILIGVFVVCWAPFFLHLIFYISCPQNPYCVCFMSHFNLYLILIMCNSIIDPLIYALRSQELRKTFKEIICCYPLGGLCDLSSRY

pKi	Compound
6.76	CC(=O)N[C@@H](CCCNC(=N)N)C(=O)N[C@H]1CC(=O)NCCCC[C@@H](C(N)=O)NC(=O)[C@H](Cc2c[nH]c3ccccc23)NC(=O)[C@H](CCCNC(=N)N)NC(=O)[C@@H](Cc2ccccc2)NC(=O)[C@H](CO)NC1=O [Peptide No. 3, Ac-Arg-cyclo(Asp-Ser- D-Phe-Arg-Trp-Lys)- NH2]
9.00	CC(=O)N[C@@H](CCCNC(=N)N)C(=O)N[C@H]1CC(=O)NCCCC[C@@H](C(N)=O)NC(=O)[C@H](Cc2c[nH]c3ccccc23)NC(=O)[C@H](CCCNC(=N)N)NC(=O)[C@@H](Cc2ccccc2)NC(=O)[C@H]([C@@H](C)OCc2ccccc2)NC1=O [compound 14, Ac-Arg-cyclo(Asp- Thr(Bzl)-D-Phe-Arg- Trp-Lys)-NH2] (Ac-RDT(Bn)[dF]RWK-NH2; lactam 2-7)
8.52	CC(=O)N[C@@H](CCCNC(=N)N)C(=O)N[C@H]1CC(=O)NCCCC[C@@H](C(N)=O)NC(=O)[C@H](Cc2c[nH]c3ccccc23)NC(=O)[C@H](CCCNC(=N)N)NC(=O)[C@@H](Cc2cccc3ccccc23)NC(=O)[C@H](Cc2c[nH]cn2)NC1=O [compound 19, Ac-Arg-cyclo(Asp-His- D-Nal 1-Arg-Trp-Lys)- NH2]
7.82	CC(=O)N[C@@H](CCCNC(=N)N)C(=O)N[C@H]1CC(=O)NCCCC[C@@H](C(N)=O)NC(=O)[C@H](Cc2c[nH]c3ccccc23)NC(=O)[C@H](CCCNC(=N)N)NC(=O)[C@@H](Cc2ccccc2)NC(=O)[C@H](Cc2cccc(C(N)=O)c2)NC1=O [compound 49, Ac-Arg-cyclo(Asp-Phe- (3-(C(═O)—NH2))-D-Phe- Arg-Trp-Lys)-NH2]
7.52	CC(=O)N[C@@H](CCCNC(=N)N)C(=O)N[C@H]1CC(=O)NCCCC[C@@H](C(N)=O)NC(=O)[C@H](Cc2c[nH]c3ccccc23)NC(=O)[C@H](CCCNC(=N)N)NC(=O)[C@@H](Cc2ccccc2)NC(=O)[C@H](Cc2ccc(C(N)=O)cc2)NC1=O [compound 50, Ac-Arg-cyclo(Asp- Phe(4-(C(═O)—NH2))-D- Phe-Arg-Trp-Lys)-NH2]
8.52	CC(=O)N[C@@H](CCCNC(=N)N)C(=O)N[C@H]1CC(=O)NCCCC[C@@H](C(=O)O)NC(=O)[C@H](Cc2c[nH]c3ccccc23)NC(=O)[C@H](CCCNC(=N)N)NC(=O)[C@@H](Cc2ccccc2)NC(=O)[C@@H]2C[C@@H](OCc3ccccc3)CN2C1=O [compound 54, Ac-Arg-cyclo(Asp- Hyp(Bzl)-D-Phe-Arg- Trp-Lys)-OH]
7.92	CC(=O)N[C@@H](CCCNC(=N)N)C(=O)N[C@H]1CC(=O)NCCCC[C@@H](C(=O)O)NC(=O)[C@H](Cc2c[nH]c3ccccc23)NC(=O)[C@H](CCCNC(=N)N)NC(=O)[C@@H](Cc2ccccc2)NC(=O)[C@@H]2C[C@@H](Cc3ccccc3)CN2C1=O [compound 55, Ac-Arg-cyclo(Asp- Pro(Bn)-D-Phe-Arg- Trp-Lys)-OH]
7.64	CC(=O)N[C@@H](CCCNC(=N)N)C(=O)N[C@H]1CC(=O)NCCCC[C@@H](C(=O)O)NC(=O)[C@H](Cc2c[nH]c3ccccc23)NC(=O)[C@H](CCCNC(=N)N)NC(=O)[C@@H](Cc2ccccc2)NC(=O)[C@H](CCCN)NC1=O [compound 58, Ac-Arg-cyclo(Asp-Orn- D-Phe-Arg-Trp-Lys)-OH]
7.82	CC(=O)N[C@@H](CCCNC(=N)N)C(=O)N[C@H]1CC(=O)NCCCC[C@@H](C(N)=O)NC(=O)[C@H](Cc2c[nH]c3ccccc23)NC(=O)[C@H](CCCNC(=N)N)NC(=O)[C@@H](Cc2ccccc2)NC(=O)CN(C)C1=O [compound 63, Ac-Arg-cyclo(Asp-Sar- D-Phe-Arg-Trp-Lys)- NH2]
9.22	CC(=O)N[C@@H](CCCNC(=N)N)C(=O)N[C@H]1CCCNC(=O)CC[C@@H](C(N)=O)NC(=O)[C@H](Cc2c[nH]c3ccccc23)NC(=O)[C@H](CCCNC(=N)N)NC(=O)[C@@H](Cc2ccccc2)NC(=O)[C@H](Cc2c[nH]cn2)NC1=O [compound 75, Ac-Arg-cyclo(Orn-His- D-Phe-Arg-Trp-Glu)- NH2] (HELM PEPTIDE1{[ac].R.[Orn].H.[dF].R.W.E.[am]}$PEPTIDE1,PEPTIDE1,3:R3-8:R3$$$V2.0)
8.40	CC(=O)N[C@@H](CCCNC(=N)N)C(=O)N[C@H]1CC(=O)NCCCC[C@@H](C(N)=O)NC(=O)[C@H](Cc2c[nH]c3ccccc23)NC(=O)[C@H](CCCNC(=N)N)NC(=O)[C@@H](Cc2ccccc2)NC(=O)[C@@H]2C[C@@H](O)CN2C1=O [compound 79, Ac-Arg-cyclo(Asp-Hyp- D-Phe-Arg-Trp-Lys)- NH2]
8.40	CC(=O)N[C@@H](CCCNC(=N)N)C(=O)N[C@H]1CCC(=O)NCCC[C@@H](C(=O)O)NC(=O)[C@H](Cc2c[nH]c3ccccc23)NC(=O)[C@H](CCCNC(=N)N)NC(=O)[C@@H](Cc2ccccc2)NC(=O)[C@H](Cc2c[nH]cn2)NC1=O [compound 82, Ac-Arg-cyclo(Glu-His- D-Phe-Arg-Trp-Orn)- OH] (HELM PEPTIDE1{[ac].R.E.H.[dF].R.W.[Orn]}$PEPTIDE1,PEPTIDE1,3:R3-8:R3$$$V2.0)
8.05	CC(=O)N[C@@H](CCCNC(=N)N)C(=O)N[C@H]1CCC(=O)NCCC[C@@H](C(=O)O)NC(=O)[C@H](Cc2c[nH]c3ccccc23)NC(=O)[C@H](CCCNC(=N)N)NC(=O)[C@@H](Cc2ccccc2)NC(=O)[C@H](CCCN)NC1=O [compound 90, Ac-Arg-cyclo(Glu-Orn- D-Phe-Arg-Trp-Orn)- OH]
8.22	N=C(N)NCCC[C@@H]1NC(=O)[C@@H](Cc2ccccc2)NC(=O)[C@H](Cc2c[nH]cn2)NC(=O)[C@@H](NC(=O)[C@@H](N)CCCNC(=N)N)CCCNC(=O)CC[C@@H](C(N)=O)NC(=O)[C@H](Cc2c[nH]c3ccccc23)NC1=O [compound 99, Arg-cyclo(Orn-His-D- Phe-Arg-Trp-Glu)-NH2] (HELM PEPTIDE1{R.[Orn].H.[dF].R.W.E.[am]}$PEPTIDE1,PEPTIDE1,2:R3-7:R3$$$V2.0)
8.05	CC(=O)N[C@@H](CCCNC(=N)N)C(=O)N[C@H]1CCC(=O)NCCC[C@@H](C(N)=O)NC(=O)[C@H](Cc2c[nH]c3ccccc23)NC(=O)[C@H](CCCNC(=N)N)NC(=O)[C@@H](Cc2ccccc2)NC(=O)[C@H](CC[S+](C)[O-])NC1=O (stereo partly drawn) [compound 111, Ac-Arg-cyclo(Glu- Met(═O)-D-Phe-Arg- Trp-Orn)-NH2]
5.84	CC(=O)N[C@@H](CCCNC(=N)N)C(=O)N[C@H]1CC(=O)NCCCC[C@@H](C(N)=O)NC(=O)[C@H](Cc2c[nH]c3ccccc23)NC(=O)[C@H](CCCNC(=N)N)NC(=O)[C@@H](Cc2ccccc2)NC(=O)[C@H](CO)NC1=O [compound 117, Ac-Arg-cyclo(Asp-Ser- D-Phe-Cit-Trp-Lys)-NH2]
9.40	CC(=O)N[C@@H](CCCNC(=N)N)C(=O)N[C@H]1CCCCNC(=O)C[C@@H](C(N)=O)NC(=O)[C@H](Cc2c[nH]c3ccccc23)NC(=O)[C@H](CCCNC(=N)N)NC(=O)[C@@H](Cc2ccccc2)NC(=O)[C@H](CCN)NC1=O [compound 121, Ac-Arg-cyclo(Lys-Dab- D-Phe-Arg-Trp-Asp)- NH2] (HELM PEPTIDE1{[ac].R.K.[Dab].[dF].R.W.D.[am]}$PEPTIDE1,PEPTIDE1,3:R3-8:R3$$$V2.0)
8.52	CC(=O)N[C@@H](CCCNC(=N)N)C(=O)N[C@H]1CC(=O)NCCCC[C@@H](C(=O)NC2CC2)NC(=O)[C@H](Cc2c[nH]c3ccccc23)NC(=O)[C@H](CCCNC(=N)N)NC(=O)[C@@H](Cc2ccccc2)NC(=O)[C@H](CCN)NC1=O [compound 122, Ac-Arg-cyclo(Asp-Dab- D-Phe-Arg-Trp-Lys)- NH-cyclopropyl]
7.46	CC(=O)N[C@@H](CCCNC(=N)N)C(=O)N[C@H]1CCCCNC(=O)C[C@@H](C(=O)O)NC(=O)[C@H](Cc2c[nH]c3ccccc23)NC(=O)[C@H](CCCNC(=N)N)NC(=O)[C@@H](Cc2ccccc2)NC(=O)[C@H](CCN)NC1=O [compound 131, Ac-Arg-cyclo(Lys-Dab- D-Phe-Arg-Trp-Asp)- OH] (HELM PEPTIDE1{[ac].R.K.[Dab].[dF].R.W.D}$PEPTIDE1,PEPTIDE1,3:R3-8:R3$$$V2.0)
7.46	CC(=O)N[C@@H](CCCNC(=N)N)C(=O)N[C@H]1CCNC(=O)CCC[C@@H](C(=O)O)NC(=O)[C@H](Cc2c[nH]c3ccccc23)NC(=O)[C@H](CCCNC(=N)N)NC(=O)[C@@H](Cc2ccccc2)NC(=O)[C@H](CCN)NC1=O [compound 136, Ac-Arg-cyclo(Dab-Dab- D-Phe-Arg-Trp-hGlu)- OH]
9.00	N=C(N)NCCC[C@H](NC(=O)CC1CCCCC1)C(=O)N[C@H]1CC(=O)NCCCC[C@@H](C(N)=O)NC(=O)[C@H](Cc2c[nH]c3ccccc23)NC(=O)[C@H](CCCNC(=N)N)NC(=O)[C@@H](Cc2ccccc2)NC(=O)[C@H](CCN)NC1=O [compound 139, Cyclohexylacetyl-Arg- cyclo(Asp-Dab-D-Phe- Arg-Trp-Lys)-NH2]

Compound	pKi
CC(=O)N[C@@H](CCCNC(=N)N)C(=O)N[C@H]1CC(=O)NCCCC[C@@H](C(N)=O)NC(=O)[C@H](Cc2c[nH]c3ccccc23)NC(=O)[C@H](CCCNC(=N)N)NC(=O)[C@@H](Cc2ccccc2)NC(=O)[C@H](CCC(N)=O)NC1=O [compound 57, Ac-Arg-cyclo(Asp-Gln- D-Phe-Arg-Trp-Lys)-OH]	6.94
N=C(N)NCCC[C@H](NC(=O)Cc1ccccc1)C(=O)N[C@H]1CC(=O)NCCCC[C@@H](C(N)=O)NC(=O)[C@H](Cc2c[nH]c3ccccc23)NC(=O)[C@H](CCCNC(=N)N)NC(=O)[C@@H](Cc2ccccc2)NC(=O)[C@H](CCN)NC1=O [compound 140, Phenylacetyl-Arg- cyclo(Asp-Dab-D-Phe- Arg-Trp-Lys)-NH2]	8.70
